# Calls of active or inactive are those of the source.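 How the source made its calls: active means compounds whose fitted half-maximal concentration in the cell-protection dose series is at or below a set limit; inactive means the rest.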
# Tested on: H9c2 cardiomyocytes, 2-deoxyglucose stress, ATP luminescence, 2 h
# Test: H9c2 cell survival under 2-deoxyglucose stress – uHTS hits, dose response (AID 588780)
row,Structure (SMILES),IC50
1,Brc1cc2c(cc1/C=N/Nc1nc(N3CCCC3)nc(N3CCOCC3)n1)OCO2,> 79 µM (inactive)
2,CCN1C(=O)/C(=C/c2nc3ccccc3c(=O)n2-c2ccccc2)c2ccccc21,> 79 µM (inactive)
3,COc1cc(NC(=O)c2cc3ccccc3cc2OC)ccc1NC(=O)c1cccs1,> 79 µM (inactive)
4,COc1ccc(-c2nn3c(-c4ccco4)nnc3s2)cc1OC,33.8 µM (inactive)
5,NC(=O)COc1ccc2oc(=O)cc(-c3cc4ccccc4o3)c2c1,> 79 µM (inactive)
6,CCCCC(=O)Nc1cc(C)c2c(=O)oc3ccccc3c2n1,> 79 µM (inactive)
7,Cc1ccc2nsnc2c1S(=O)(=O)N(Cc1ccco1)Cc1cc2cccc(C)c2[nH]c1=O,25.8 µM
8,COc1cc(-c2cc(NC=O)c3ncc(-c4ccccc4)n3c2)cc(OC)c1OC,> 79 µM (inactive)
9,CC(C)CCN(C(=O)CNC(=O)c1ccco1)C(C(=O)NC1CCCCC1)c1ccco1 (stereo not drawn),37.5 µM (inactive)
10,Cc1c(C#N)c(N)nc2c3c(sc12)NC(=O)CC3c1ccc(Cl)cc1 (stereo not drawn),19.7 µM
11,COc1cccc(-c2cnc3c(NC=O)cc(-c4cc(OC)c(OC)c(OC)c4)cn23)c1,> 79 µM (inactive)
12,COc1ccc(NC(=O)c2oc3ccc(S(=O)(=O)N4CCOCC4)cc3c2C)cc1,> 79 µM (inactive)
13,Cn1c2ccc(F)cc2c2nnc(NN)nc21,> 79 µM (inactive)
14,O=c1[nH]c(N2CCN(c3ccccc3)CC2)nc2c1CCC2,> 79 µM (inactive)
15,Cc1ccc(-c2n[nH]c(=O)c3ccccc23)cc1S(=O)(=O)NCC1CCCO1 (stereo not drawn),> 79 µM (inactive)
16,O=c1[nH]nc(-c2ccc(NCCCO)c([N+](=O)[O-])c2)c2ccccc12,> 79 µM (inactive)
17,Cc1ccc(-c2[nH]c3cc(C(N)=O)ccc3c(=O)c2O)cc1,> 79 µM (inactive)
18,COc1nnc(-c2ccc(C)c(S(=O)(=O)NCCO)c2)c2ccccc12,> 79 µM (inactive)
19,CCOc1cc(/C=C/c2nc3ccccc3c(=O)[nH]2)ccc1O,> 79 µM (inactive)
20,Cc1cc(N)n(-c2nc(-c3cccnc3)nc3ccccc23)n1,19.8 µM
21,COc1cccc(CN(C)C(=O)C(Cc2ccccc2)NC(=O)c2ccccc2)c1OC (stereo not drawn),20.8 µM
22,COC(=O)Cc1n[nH]c(=O)c2ccccc12,> 79 µM (inactive)
23,Cc1ccc(CN(C(=O)CNC(=O)c2cccs2)C(C(=O)NCC2CCCO2)c2ccccc2)cc1 (stereo not drawn),14.1 µM
24,CCc1cc(C(=O)Nc2nc(-c3ccccn3)cs2)sc1C,> 79 µM (inactive)

row,Structure (SMILES),IC50
1,Cc1ccc(S(=O)(=O)N2CCN(C(=O)c3cc(=O)[nH]c4ccccc34)CC2)c(C)c1,16.8 µM
2,Cc1cccc(N=Cc2cc(Br)cc(Cl)c2O)c1,39.6 µM (inactive)
3,CCn1c(O)c(/C=N/N=C/c2ccccc2)c2ccc(C3=NNC(=O)CC3)cc21,> 79 µM (inactive)
4,COc1cc2[nH]c(=O)n3nc(-c4ccccc4)nc3c2cc1OC,> 79 µM (inactive)
5,COc1cc(-c2cnc3c(NC=O)cc(-c4cccc(NC(C)=O)c4)cn23)cc(OC)c1OC,> 79 µM (inactive)
6,CCOC(=O)C1=C(COC(=O)c2ccc([N+](=O)[O-])o2)NC(=O)NC1C (stereo not drawn),> 79 µM (inactive)
7,COc1ccc(C(C(=O)NC2CCCCC2)N(Cc2cccs2)C(=O)Cc2c[nH]c3ccccc23)cc1OC (stereo not drawn),12.5 µM
8,O=C(O)c1nn(CCOc2ccc(Br)cc2)c(=O)c2ccccc12,> 79 µM (inactive)
9,Cc1cc2[nH]c(=O)c3ccccc3n2n1,> 79 µM (inactive)
10,CC(C)NC(=O)COC(=O)Cn1[nH]c(=O)c2ccccc2c1=O,> 79 µM (inactive)
11,CN(C)S(=O)(=O)c1ccc2[nH]cc(/C=C/c3nc4ccccc4c(=O)n3-c3ccccc3)c2c1,> 79 µM (inactive)
12,Cc1ccc(-c2csc(NC(=O)Cn3[nH]c(=O)c4ccccc4c3=O)n2)cc1,13.8 µM
13,Cc1c(C=O)c2ccccn2c1C(=O)c1ccc(Cl)c([N+](=O)[O-])c1,> 79 µM (inactive)
14,CCOCCn1ccc2c(OCC(=O)Nc3cc(OC)ccc3OC)cccc2c1=O,> 79 µM (inactive)
15,CCc1nc2ccccc2c(C(=O)OCc2nc3ccccc3c(=O)[nH]2)c1C,23.1 µM
16,CC(C)N1C(=O)S/C(=C/c2ccc3c(c2)n(C)c(=O)n3C)C1=O,> 79 µM (inactive)
17,Cc1cccc(NC(=O)c2nc[nH]c2C(=O)NCCCNC(=O)c2[nH]cnc2C(=O)Nc2cccc(C)c2)c1,31.6 µM (inactive)
18,CCCCNC(=O)c1cn(-c2ccc(OCC)cc2)c(=O)c2cc(OC)c(OC)cc12,41.7 µM (inactive)
19,COc1ccc(-c2cc(C(=O)N(C)Cc3ccc(OC)c(OC)c3OC)c3ccccc3n2)cc1OC,10.4 µM
20,COc1cc(NC(=O)c2csc(-c3ccncc3)n2)cc(C(=O)Nc2cccc(C(F)(F)F)c2)c1,8.47 µM
21,CCn1c(=O)c(C(=O)NC(C)c2ccccc2)c(O)c2ccccc21 (stereo not drawn),> 79 µM (inactive)
22,O=P(Nc1ccccc1)(Oc1ccccc1)Oc1ccccc1,> 79 µM (inactive)
23,CCOC(=O)CSc1nnc(CSc2nc3ccccc3c(=O)[nH]2)n1-c1ccccc1,> 79 µM (inactive)
24,COc1ccc(Cl)cc1-c1nc(-c2ccc(NC(=O)c3cccs3)cc2)no1,> 79 µM (inactive)
